Measurements published in patent publication US8952157B2, “Apoptosis-inducing agents for the treatment of cancer and immune and autoimmune diseases” (AbbVie Inc., priority 2008, dated 2015).

Target: GST-Bcl-2 (Homo sapiens (Human), UniProt P10415)
Experiment: Time Resolved-Fluorescence Resonance Energy Transfer (TR-FRET) Bcl-2 binding assay
Conditions: GST-Bcl-2 1 nM, F-Bak peptide probe 100 nM, Tb-anti-GST antibody 1 nM; Ki by Wang's equation
Outline: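 Ki values derived from TR-FRET displacement of F-Bak peptide from GST-Bcl-2, detected with Tb-labelled anti-GST antibody (ex 340, em 520/495 nm). Compound dilution series started at 50 μM (2× starting concentration); room-temperature incubation 3 hours.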

Chain of GST-Bcl-2 (P10415 whole entry): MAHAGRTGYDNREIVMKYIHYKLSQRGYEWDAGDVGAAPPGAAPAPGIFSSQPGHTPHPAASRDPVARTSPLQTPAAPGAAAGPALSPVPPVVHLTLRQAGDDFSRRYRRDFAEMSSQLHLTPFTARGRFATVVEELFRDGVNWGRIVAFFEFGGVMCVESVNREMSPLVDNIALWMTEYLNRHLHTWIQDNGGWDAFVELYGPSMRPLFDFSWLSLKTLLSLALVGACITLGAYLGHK

| SMILES | Ki |
| --- | --- |
| CC1(C)CCC(CN2CCN(c3ccc(C(=O)NS(=O)(=O)c4ccc(NC5CCN(C6CC6)CC5)c([N+](=O)[O-])c4)c(Oc4cccc(Cl)c4)c3)CC2)=C(c2ccc(Cl)cc2)C1 [Example 119, 2-(3-chlorophenoxy)-4-(4-{[2-(4-chlorophenyl)-4,4-dimethylcyclohex-1-en-1-yl]methyl}piperazin-1-yl)-N-({4-[(1-cyclopropylpiperidin-4-yl)amino]-3-nitrophenyl}sulfonyl)benzamide] | 156 pM |
| CC1(C)CCC(CN2CCN(c3ccc(C(=O)NS(=O)(=O)c4ccc(NCCCN5CCOCC5)c([N+](=O)[O-])c4)c(Oc4ccc(F)cc4Cl)c3)CC2)=C(c2ccc(Cl)cc2)C1 [Example 120, 2-(2-chloro-4-fluorophenoxy)-4-(4-{[2-(4-chlorophenyl)-4,4-dimethylcyclohex-1-en-1-yl]methyl}piperazin-1-yl)-N-({4-[(3-morpholin-4-ylpropyl)amino]-3-nitrophenyl}sulfonyl)benzamide] | 214 pM |
| CC1(C)CCC(CN2CCN(c3ccc(C(=O)NS(=O)(=O)c4ccc(NC5CCN(C6CC6)CC5)c([N+](=O)[O-])c4)c(Oc4cccc(F)c4F)c3)CC2)=C(c2ccc(Cl)cc2)C1 [Example 121, 4-(4-{[2-(4-chlorophenyl)-4,4-dimethylcyclohex-1-en-1-yl]methyl}piperazin-1-yl)-N-({4-[(1-cyclopropylpiperidin-4-yl)amino]-3-nitrophenyl}sulfonyl)-2-(2,3-difluorophenoxy)benzamide] | 81 pM |
| CN1CCC(Nc2ccc(S(=O)(=O)NC(=O)c3ccc(N4CCN(CC5=C(c6ccc(Cl)cc6)CC(C)(C)CC5)CC4)cc3Oc3ccccc3F)cc2[N+](=O)[O-])CC1 [Example 122, 4-(4-{[2-(4-chlorophenyl)-4,4-dimethylcyclohex-1-en-1-yl]methyl}piperazin-1-yl)-2-(2-fluorophenoxy)-N-({4-[(1-methylpiperidin-4-yl)amino]-3-nitrophenyl}sulfonyl)benzamide] | < 1 pM |
| CC1(C)CCC(CN2CCN(c3ccc(C(=O)NS(=O)(=O)c4ccc(NC5CCN(C6CC6)CC5)c([N+](=O)[O-])c4)c(Oc4ccccc4F)c3)CC2)=C(c2ccc(Cl)cc2)C1 [Example 123, 4-(4-{[2-(4-chlorophenyl)-4,4-dimethylcyclohex-1-en-1-yl]methyl}piperazin-1-yl)-N-({4-[(1-cyclopropylpiperidin-4-yl)amino]-3-nitrophenyl}sulfonyl)-2-(2-fluorophenoxy)benzamide] | 110 pM |
| CC1(C)CCC(CN2CCN(c3ccc(C(=O)NS(=O)(=O)c4ccc(NC5CCN(C6CCOCC6)CC5)c([N+](=O)[O-])c4)c(Oc4ccccc4F)c3)CC2)=C(c2ccc(Cl)cc2)C1 [Example 124, 4-(4-{[2-(4-chlorophenyl)-4,4-dimethylcyclohex-1-en-1-yl]methyl}piperazin-1-yl)-2-(2-fluorophenoxy)-N-({3-nitro-4-[(1-tetrahydro-2H-pyran-4-ylpiperidin-4-yl)amino]phenyl}sulfonyl)benzamide] | 33 pM |
| CC1(C)CCC(CN2CCN(c3ccc(C(=O)NS(=O)(=O)c4ccc(NCCCN5CCOCC5)c([N+](=O)[O-])c4)c(Oc4ccccc4F)c3)CC2)=C(c2ccc(Cl)cc2)C1 [Example 125, 4-(4-{[2-(4-chlorophenyl)-4,4-dimethylcyclohex-1-en-1-yl]methyl}piperazin-1-yl)-2-(2-fluorophenoxy)-N-({4-[(3-morpholin-4-ylpropyl)amino]-3-nitrophenyl}sulfonyl)benzamide] | 75 pM |
| CC1(C)CCC(CN2CCN(c3ccc(C(=O)NS(=O)(=O)c4ccc(NCCN5CCOCC5)c([N+](=O)[O-])c4)c(Oc4ccccc4F)c3)CC2)=C(c2ccc(Cl)cc2)C1 [Example 126, 4-(4-{[2-(4-chlorophenyl)-4,4-dimethylcyclohex-1-en-1-yl]methyl}piperazin-1-yl)-2-(2-fluorophenoxy)-N-({4-[(2-morpholin-4-ylethyl)amino]-3-nitrophenyl}sulfonyl)benzamide] | 68 pM |
| CC1(C)CCC(CN2CCN(c3ccc(C(=O)NS(=O)(=O)c4ccc(NC5CCN(C6CCOCC6)CC5)c([N+](=O)[O-])c4)c(Oc4cccc(Cl)c4)c3)CC2)=C(c2ccc(Cl)cc2)C1 [Example 127, 2-(3-chlorophenoxy)-4-(4-{[2-(4-chlorophenyl)-4,4-dimethylcyclohex-1-en-1-yl]methyl}piperazin-1-yl)-N-({3-nitro-4-[(1-tetrahydro-2H-pyran-4-ylpiperidin-4-yl)amino]phenyl}sulfonyl)benzamide] | 30 pM |
| CC1(C)CCC(CN2CCN(c3ccc(C(=O)NS(=O)(=O)c4ccc(NCCCN5CCOCC5)c([N+](=O)[O-])c4)c(Oc4cccc(Cl)c4)c3)CC2)=C(c2ccc(Cl)cc2)C1 [Example 128, 2-(3-chlorophenoxy)-4-(4-{[2-(4-chlorophenyl)-4,4-dimethylcyclohex-1-en-1-yl]methyl}piperazin-1-yl)-N-({4-[(3-morpholin-4-ylpropyl)amino]-3-nitrophenyl}sulfonyl)benzamide] | 64 pM |
| CC1(C)CCC(CN2CCN(c3ccc(C(=O)NS(=O)(=O)c4ccc(NC5CCN(C6CCCC6)CC5)c([N+](=O)[O-])c4)c(Oc4cccc(Cl)c4)c3)CC2)=C(c2ccc(Cl)cc2)C1 [Example 130, 2-(3-chlorophenoxy)-4-(4-{[2-(4-chlorophenyl)-4,4-dimethylcyclohex-1-en-1-yl]methyl}piperazin-1-yl)-N-({4-[(1-cyclopentylpiperidin-4-yl)amino]-3-nitrophenyl}sulfonyl)benzamide] | 67 pM |
| CN1CCC(Nc2ccc(S(=O)(=O)NC(=O)c3ccc(N4CCN(CC5=C(c6ccc(Cl)cc6)CC(C)(C)CC5)CC4)cc3Oc3cccc(Cl)c3)cc2S(=O)(=O)C(F)(F)F)CC1 [Example 131, 2-(3-chlorophenoxy)-4-(4-{[2-(4-chlorophenyl)-4,4-dimethylcyclohex-1-en-1-yl]methyl}piperazin-1-yl)-N-({4-[(1-methylpiperidin-4-yl)amino]-3-[(trifluoromethyl)sulfonyl]phenyl}sulfonyl)benzamide] | 66 pM |
| CC1(C)CCC(CN2CCN(c3ccc(C(=O)NS(=O)(=O)c4ccc(NC5CCN(C6CC6)CC5)c([N+](=O)[O-])c4)c(Oc4cccc(F)c4)c3)CC2)=C(c2ccc(Cl)cc2)C1 [Example 132, 4-(4-{[2-(4-chlorophenyl)-4,4-dimethylcyclohex-1-en-1-yl]methyl}piperazin-1-yl)-N-({4-[(1-cyclopropylpiperidin-4-yl)amino]-3-nitrophenyl}sulfonyl)-2-(3-fluorophenoxy)benzamide] | 211 pM |
| CC1(C)CCC(CN2CCN(c3ccc(C(=O)NS(=O)(=O)c4ccc(NC5CCN(C6CCCC6)CC5)c([N+](=O)[O-])c4)c(Oc4cccc(F)c4F)c3)CC2)=C(c2ccc(Cl)cc2)C1 [Example 133, 4-(4-{[2-(4-chlorophenyl)-4,4-dimethylcyclohex-1-en-1-yl]methyl}piperazin-1-yl)-N-({4-[(1-cyclopentylpiperidin-4-yl)amino]-3-nitrophenyl}sulfonyl)-2-(2,3-difluorophenoxy)benzamide] | 55 pM |
| CC1(C)CCC(CN2CCN(c3ccc(C(=O)NS(=O)(=O)c4ccc(NCCN5CCOCC5)c([N+](=O)[O-])c4)c(Oc4cccc(F)c4F)c3)CC2)=C(c2ccc(Cl)cc2)C1 [Example 135, 4-(4-{[2-(4-chlorophenyl)-4,4-dimethylcyclohex-1-en-1-yl]methyl}piperazin-1-yl)-2-(2,3-difluorophenoxy)-N-({4-[(2-morpholin-4-ylethyl)amino]-3-nitrophenyl}sulfonyl)benzamide] | 68 pM |
| CC1(C)CCC(CN2CCN(c3ccc(C(=O)NS(=O)(=O)c4ccc(NC5CCN(Cc6ccsc6)CC5)c([N+](=O)[O-])c4)c(Oc4cccc(F)c4F)c3)CC2)=C(c2ccc(Cl)cc2)C1 [Example 136, 4-(4-{[2-(4-chlorophenyl)-4,4-dimethylcyclohex-1-en-1-yl]methyl}piperazin-1-yl)-2-(2,3-difluorophenoxy)-N-[(3-nitro-4-{[1-(thien-3-ylmethyl)piperidin-4-yl]amino}phenyl)sulfonyl]benzamide] | 177 pM |
| CN(C)CCCNc1ccc(S(=O)(=O)NC(=O)c2ccc(N3CCN(CC4=C(c5ccc(Cl)cc5)CC(C)(C)CC4)CC3)cc2Oc2ccccc2F)cc1[N+](=O)[O-] [Example 137, 4-(4-{[2-(4-chlorophenyl)-4,4-dimethylcyclohex-1-en-1-yl]methyl}piperazin-1-yl)-N-[(4-{[3-(dimethylamino)propyl]amino}-3-nitrophenyl)sulfonyl]-2-(2-fluorophenoxy)benzamide] | 21 pM |
| CN(C)CCCNc1ccc(S(=O)(=O)NC(=O)c2ccc(N3CCN(CC4=C(c5ccc(Cl)cc5)CC(C)(C)CC4)CC3)cc2Oc2cccc(F)c2)cc1[N+](=O)[O-] [Example 138, 4-(4-{[2-(4-chlorophenyl)-4,4-dimethylcyclohex-1-en-1-yl]methyl}piperazin-1-yl)-N-[(4-{[3-(dimethylamino)propyl]amino}-3-nitrophenyl)sulfonyl]-2-(3-fluorophenoxy)benzamide] | 16 pM |
| CN(C)CCCNc1ccc(S(=O)(=O)NC(=O)c2ccc(N3CCN(CC4=C(c5ccc(Cl)cc5)CC(C)(C)CC4)CC3)cc2Oc2ccc(F)cc2)cc1[N+](=O)[O-] [Example 139, 4-(4-{[2-(4-chlorophenyl)-4,4-dimethylcyclohex-1-en-1-yl]methyl}piperazin-1-yl)-N-[(4-{[3-(dimethylamino)propyl]amino}-3-nitrophenyl)sulfonyl]-2-(4-fluorophenoxy)benzamide] | 125 pM |
| CC1(C)CCC(CN2CCN(c3ccc(C(=O)NS(=O)(=O)c4ccc(NC5CCN(CCF)CC5)c([N+](=O)[O-])c4)c(Oc4cccc(F)c4F)c3)CC2)=C(c2ccc(Cl)cc2)C1 [Example 140, 4-(4-{[2-(4-chlorophenyl)-4,4-dimethylcyclohex-1-en-1-yl]methyl}piperazin-1-yl)-2-(2,3-difluorophenoxy)-N-[(4-{[1-(2-fluoroethyl)piperidin-4-yl]amino}-3-nitrophenyl)sulfonyl]benzamide] | 223 pM |
